Patent US10543212B2, “Substituted amines for treating cardiac diseases” (Cardurion Pharmaceuticals, LLC, priority 2017, dated 2020)

What follows are compounds tested against T1, Human full-length CaMKIIδ (Homo sapiens, UniProt Q13557) (assay: Human CaMKII enzyme inhibition assay (radiometric kinase assay)). Conditions: 3 μM compound; 500 nM ATP; 0.5 nM CaMKIIδ; read-out: CaMKIIδ inhibitory activity (%) at 3 μM.
T1 construct: Human full-length CaMKIIδ (Cat #02-111) was obtained from Carna Biosciences; GST; purchased Carna Biosciences 02-111
Format: biochemical
Procedure: In Vitro CaMKIIδ Inhibitory Activity was Evaluated by an Enzyme Assay.
Human CaMKII Enzyme Inhibition Assay
Kinase assay for CaMKIIs was performed using the radiometric assay. Human full-length CaMKIIδ (Cat #02-111) was obtained from Carna Biosciences (Kobe, Japan).
Enzyme reactions were performed in 25 mM HEPES, pH 7.5, with 5 mM magnesium chloride, 1 mM calcium chloride, 10 μg/mL Calmodulin, 2 mM DTT, 0.01% Tween20 and 500 nM ATP (0.2 μCi/well of [γ-33P] ATP) containing 0.5 nM CaMKIIδ and 0.1 μM autophosphorylation peptide (KKALRRQETVDAL)(Toray Research Center).
After incubating the enzyme, peptide, and compounds for 5 min, kinase reactions were initiated by adding ATP, followed by incubation for 60 min at room temperature in a total volume of 50 μL. The reactions were terminated by the addition of 10% trichloroacetic acid (final concentration). The [γ-33P]-phosphorylated proteins were filtered in a Harvest Plate (Merck Millipore) with a Cell Harvester (PerkinElmer) and then free [γ-33P] ATP was washed out with 3% phosphoric acid. The plates were dried, followed by the addition of 40 μl of MicroScintO (PerkinElmer). The radioactivity was counted by a TopCount scintillation counter (PerkinElmer). The signals of the reaction without enzyme were defined as 100% inhibitory activity and those of the reaction without inhibitors as 0% inhibitory activity. In vitro CaMKIIδ inhibitory activity was evaluated by % inhibitory activity of 3 μM compound concentration.

Compared with `COc1nc(N2CCC(N3CCOCC3)CC2)ncc1Nc1ncc(-c2ccc(C#N)c(O[C@@H](C)Cn3cnnn3)c2)cn1` [Example 56, 4-(2-((4-methoxy-2-(4-(morpholin-4-yl)piperidin-1-yl)pyrimidin-5-yl)amino)pyrimidin-5-yl)-2-(((2S)-1-(1H-tetrazol-1-yl)propan-2-yl)oxy)benzonitrile], `COc1cc(N2CCC(N3CCOCC3)CC2)ncc1Nc1ncc(-c2ccc(C#N)c(O[C@@H](C)Cn3cnnn3)c2)cn1` [Example 57, 4-(2-((4-methoxy-6-(4-(morpholin-4-yl)piperidin-1-yl)pyridin-3-yl)amino)pyrimidin-5-yl)-2-(((2S)-1-(1H-tetrazol-1-yl)propan-2-yl)oxy)benzonitrile] is higher in inhibition at 3 µM: 98% for the first, 99% for the second.

`COc1cc(N2CCC(N3CCOCC3)CC2)ccc1Nc1ncc(-c2ccc(Cl)c(O[C@@H](C)Cn3ccnc3)c2)cn1` [Example 58, 5-(4-chloro-3-(((2S)-1-(1H-imidazol-1-yl)propan-2-yl)oxy)phenyl)-N-(2-methoxy-4-(4-(morpholin-4-yl)piperidin-1-yl)phenyl)pyrimidin-2-amine] and `COc1cc(N2CCC(N3CCOCC3)CC2)ccc1Nc1ncc(-c2ccc(Cl)c(O[C@@H](C)Cn3cnnn3)c2)cn1` [Example 60, 5-(4-chloro-3-(((2S)-1-(1H-tetrazol-1-yl)propan-2-yl)oxy)phenyl)-N-(2-methoxy-4-(4-(morpholin-4-yl)piperidin-1-yl)phenyl)pyrimidin-2-amine] are the same in inhibition at 3 µM: 99% for the first, 99% for the second.

Going from `COc1cc(C(=O)N2CCOCC2)ccc1Nc1ncc(-c2ccc(C#N)c(O[C@@H](C)Cn3cncn3)c2)cn1` [Example 72, 4-(2-((2-methoxy-4-(morpholin-4-ylcar-bonyl)phenyl)amino)pyrimidin-5-yl)-2-(((2S)-1-(1H-1,2,4-triazol-1-yl)propan-2-yl)oxy)benzonitrile] to `COc1cc(C(=O)N2CCOCC2)ccc1Nc1ncc(-c2ccc(C#N)c(O[C@@H](C)Cn3cnnn3)c2)cn1` [Example 82, 4-(2-((2-methoxy-4-(morpholin-4-ylcar-bonyl)phenyl)amino)pyrimidin-5-yl)-2-(((2S)-1-(1H-tetrazol-1-yl)propan-2-yl)oxy)benzonitrile], the inhibition at 3 µM rises from 97% to 98%.

Compared with `COc1cc(C(=O)N2CCN(C)CC2)ccc1Nc1ncc(-c2ccc(C#N)c(O[C@@H](C)Cn3cncn3)c2)cn1` [Example 73, 4-(2-((2-methoxy-4-((4-methylpiperazin-1-yl)car-bonyl)phenyl)amino)pyrimidin-5-yl)-2-(((2S)-1-(1H-1,2,4-triazol-1-yl)propan-2-yl)oxy)benzonitrile], `COc1cc(C(=O)N2CC3(CN(C)C3)C2)ccc1Nc1ncc(-c2ccc(C#N)c(O[C@@H](C)Cn3cncn3)c2)cn1` [Example 147, 4-(2-((2-methoxy-4-((6-methyl-2,6-diazaspiro[3.3]hept-2-yl)carbonyl)phenyl)ami-no)pyrimidin-5-yl)-2-(((2S)-1-(1H-1,2,4-triazol-1-yl)propan-2-yl)oxy)benzonitrile] is lower in inhibition at 3 µM: 97% for the first, 95% for the second.

Compared with `COc1cc(C2CCN(C3COC3)CC2)ccc1Nc1ncc(-c2ccc(C#N)c(O[C@@H](C)Cn3cnnn3)c2)cn1` [Example 75, 4-(2-((2-methoxy-4-(1-(oxetan-3-yl)piperidin-4-yl)phenyl)amino)pyrimidin-5-yl)-2-(((2S)-1-(1H-tetrazol-1-yl)propan-2-yl)oxy)benzonitrile], `COc1cc(C2CCN(C3COC3)CC2)ccc1Nc1ncc(-c2ccc(Cl)c(O[C@@H](C)Cn3cnnn3)c2)cn1` [Example 206, 5-(4-chloro-3-(((2S)-1-(1H-tetrazol-1-yl)propan-2-yl)oxy)phenyl)-N-(2-methoxy-4-(1-(oxetan-3-yl)piperidin-4-yl)phenyl)pyrimidin-2-amine] is higher in inhibition at 3 µM: 98% for the first, 99% for the second.

Going from `COCCN1CCC(c2ccc(Nc3ncc(-c4ccc(C#N)c(O[C@@H](C)Cn5cnnn5)c4)cn3)c(OC)c2)CC1` [Example 85, 4-(2-((2-methoxy-4-(1-(2-methoxyethyl)piperidin-4-yl)phenyl)amino)pyrimidin-5-yl)-2-(((2S)-1-(1H-tetrazol-1-yl)propan-2-yl)oxy)benzonitrile] to `COc1cc(C2CCN(CCO)CC2)ccc1Nc1ncc(-c2ccc(C#N)c(O[C@@H](C)Cn3cnnn3)c2)cn1` [Example 160, 4-(2-((4-(1-(2-hydroxyethyl)piperidin-4-yl)-2-methoxy-phenyl)amino)pyrimidin-5-yl)-2-(((2S)-1-(1H-tetrazol-1-yl)propan-2-yl)oxy)benzonitrile], the inhibition at 3 µM rises from 98% to 99%.

`COc1cc(C(=O)NC2CCOCC2)ccc1Nc1ncc(-c2ccc(C#N)c(O[C@@H](C)Cn3cnnn3)c2)cn1` [Example 87, 4-((5-(4-cyano-3-(((2S)-1-(1H-tetrazol-1-yl)propan-2-yl)oxy)phenyl)pyrimidin-2-yl)amino)-3-methoxy-N-(tetrahydro-2H-pyran-4-yl)benzamide] and `COc1cc(C(=O)N2CCC(OC)CC2)ccc1Nc1ncc(-c2ccc(C#N)c(O[C@@H](C)Cn3cnnn3)c2)cn1` [Example 152, 4-(2-((2-methoxy-4-((4-methoxypiperidin-1-yl)carbonyl)phenyl)ami-no)pyrimidin-5-yl)-2-(((2S)-1-(1H-tetrazol-1-yl)propan-2-yl)oxy)benzonitrile] are the same in inhibition at 3 µM: 98% for the first, 98% for the second.

First: COc1cc(C(=O)N2CC3(CN(C)C3)C2)ccc1Nc1ncc(-c2ccc(C#N)c(O[C@@H](C)Cn3cnnn3)c2)cn1 [Example 172, 4-(2-((2-methoxy-4-((6-methyl-2,6-diazaspiro[3.3]hept-2-yl)carbonyl)phenyl)ami-no)pyrimidin-5-yl)-2-(((2S)-1-(1H-tetrazol-1-yl)propan-2-yl)oxy)benzonitrile]
Second: COc1cc(N2CCN(C3COC3)CC2)ccc1Nc1ncc(-c2ccc(C#N)c(O[C@@H](C)Cn3cnnn3)c2)cn1 [Example 192, 4-(2-((2-methoxy-4-(4-(oxetan-3-yl)piperazin-1-yl)phenyl)ami-no)pyrimidin-5-yl)-2-(((2S)-1-(1H-tetrazol-1-yl)propan-2-yl)oxy)benzonitrile]
The inhibition at 3 µM of the first is higher: 100% for the first, 99% for the second.

First: COc1cc(N2CCN(C3COC3)CC2)ccc1Nc1ncc(-c2ccc(Cl)c(O[C@@H](C)Cn3cnnn3)c2)cn1 [Example 197, 5-(4-chloro-3-(((2S)-1-(1H-tetrazol-1-yl)propan-2-yl)oxy)phenyl)-N-(2-methoxy-4-(4-(oxetan-3-yl)piperazin-1-yl)phenyl)pyrimidin-2-amine]
Second: COc1cc(N2CCN(C3COC3)CC2)c(F)cc1Nc1ncc(-c2ccc(Cl)c(O[C@@H](C)Cn3cnnn3)c2)cn1 [Example 211, 5-(4-chloro-3-(((2S)-1-(1H-tetrazol-1-yl)propan-2-yl)oxy)phenyl)-N-(5-fluoro-2-methoxy-4-(4-(oxetan-3-yl)piperazin-1-yl)phenyl)pyrimidin-2-amine]
The inhibition at 3 µM of the first is lower: 97% for the first, 98% for the second.

`COc1ccc(N2CCC(N3CCOCC3)CC2)cc1Nc1ncc(-c2ccc(C#N)c(O[C@@H](C)Cn3cnnn3)c2)cn1` [Example 202, 4-(2-((2-methoxy-5-(4-(morpholin-4-yl)piperidin-1-yl)phenyl)amino)pyrimidin-5-yl)-2-(((2S)-1-(1H-tetrazol-1-yl)propan-2-yl)oxy)benzonitrile] and `COc1cc(N2CCC(N3CCOCC3)CC2)c(F)cc1Nc1ncc(-c2ccc(Cl)c(O[C@@H](C)Cn3cnnn3)c2)cn1` [Example 205, 5-(4-chloro-3-(((2S)-1-(1H-tetrazol-1-yl)propan-2-yl)oxy)phenyl)-N-(5-fluoro-2-methoxy-4-(4-(morpholin-4-yl)piperidin-1-yl)phenyl)pyrimidin-2-amine] are the same in inhibition at 3 µM: 99% for the first, 99% for the second.

`COc1cc(N2CCC(N3C4CCC3COC4)CC2)ccc1Nc1ncc(-c2ccc(Cl)c(O[C@@H](C)Cn3cnnn3)c2)cn1` [Example 210, 5-(4-chloro-3-(((2S)-1-(1H-tetrazol-1-yl)propan-2-yl)oxy)phenyl)-N-(2-methoxy-4-(4-(3-oxa-8-azabicyclo[3.2.1]oct-8-yl)piperidin-1-yl)phenyl)pyrimidin-2-amine] and `COc1cc(N2CCC(N3C[C@H]4CC[C@@H](C3)O4)CC2)ccc1Nc1ncc(-c2ccc(Cl)c(O[C@@H](C)Cn3cnnn3)c2)cn1` [Example 213, 5-(4-chloro-3-(((2S)-1-(1H-tetrazol-1-yl)propan-2-yl)oxy)phenyl)-N-(2-methoxy-4-(4-((1R,5S)-8-oxa-3-azabicyclo[3.2.1]oct-3-yl)piperidin-1-yl)phenyl)pyrimidin-2-amine] are the same in inhibition at 3 µM: 100% for the first, 100% for the second.

`COc1nc(N2CCC(N3CCOCC3)CC2)ccc1Nc1ncc(-c2ccc(Cl)c(O[C@@H](C)Cn3cnnn3)c2)cn1` [Example 212, 5-(4-chloro-3-(((2S)-1-(1H-tetrazol-1-yl)propan-2-yl)oxy)phenyl)-N-(2-methoxy-6-(4-(morpholin-4-yl)piperidin-1-yl)pyridin-3-yl)pyrimidin-2-amine] showed an inhibition at 3 µM of 99%.
